{"source": "patent US11021481B2", "about": "“Substituted isoindolin-1-ones and 2,3-dihydro-1h-pyrrolo[3,4-c]pyridin-1-ones as HPK1 antagonists” (Nimbus Saturn, Inc., priority 2019, dated 2021)", "data": [{"molecular_target": "HPK1 (Homo sapiens (Human), UniProt Q92918)", "sequence (Q92918 whole entry)": "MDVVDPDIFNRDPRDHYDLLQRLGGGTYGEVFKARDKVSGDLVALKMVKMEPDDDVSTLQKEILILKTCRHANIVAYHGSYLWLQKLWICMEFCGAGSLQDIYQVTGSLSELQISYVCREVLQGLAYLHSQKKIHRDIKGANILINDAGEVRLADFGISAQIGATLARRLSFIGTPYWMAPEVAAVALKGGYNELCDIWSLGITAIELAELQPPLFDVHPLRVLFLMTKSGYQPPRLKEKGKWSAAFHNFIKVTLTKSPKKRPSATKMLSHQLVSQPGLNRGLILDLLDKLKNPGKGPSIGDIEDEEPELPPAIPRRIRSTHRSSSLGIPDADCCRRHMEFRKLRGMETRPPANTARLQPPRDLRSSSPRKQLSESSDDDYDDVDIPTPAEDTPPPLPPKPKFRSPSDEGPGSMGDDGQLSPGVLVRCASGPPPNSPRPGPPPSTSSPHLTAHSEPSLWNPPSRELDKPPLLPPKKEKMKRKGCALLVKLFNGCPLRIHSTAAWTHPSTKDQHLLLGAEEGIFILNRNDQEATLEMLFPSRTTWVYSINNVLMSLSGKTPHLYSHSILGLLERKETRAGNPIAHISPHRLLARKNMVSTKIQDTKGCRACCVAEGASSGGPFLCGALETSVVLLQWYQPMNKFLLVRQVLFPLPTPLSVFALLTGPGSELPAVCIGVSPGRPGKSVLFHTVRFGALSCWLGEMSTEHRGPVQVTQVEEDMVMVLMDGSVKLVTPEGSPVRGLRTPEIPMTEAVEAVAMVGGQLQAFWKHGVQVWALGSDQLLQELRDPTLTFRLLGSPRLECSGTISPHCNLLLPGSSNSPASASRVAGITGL", "experiment": "HPK1 biochemical enzyme assay (microfluidic mobility shift assay)", "conditions": "1.5 nM HPK1, ATP 1 mM final, 30 min preincubation, 60 min at RT, Caliper EZ Reader; read-out: HPK1 1000UMATP caliper IC50", "outline": "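Ten-point compound titrations (top 3 μM final) preincubated 30 min with HPK1 and substrate, then reaction started with 1 mM ATP and 1 μM substrate, 5 mM MgCl2. After 60 min at RT, reaction terminated and product measured by microfluidic mobility shift.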", "units": {"IC50": "nM"}, "values": [{"smiles": "O=C1NCc2c(-c3cnc4cc(F)ccn34)ccc(Nc3ccc([C@@H]4CCOC4)c(CN4CCC[C@@H]4CO)n3)c21", "note": "[I-826, 4-(7-fluoroimidazo [1,2-a]pyridin-3-yl)-7-((6-(((R)-2-(hydroxymeth-yl)pyrrolidin-1-yl)methyl)-5-((S)-THF-3-yl)pyridin-2-yl)amino)isoin-dolin-1-one]", "IC50": "< 100"}, {"smiles": "CNCc1nc(Nc2cnc(-c3ccnc4c3ccn4C)c3c2C(=O)NC3)ccc1[C@@H]1CCOC1", "note": "(single isomer, unassigned) [I-813]", "IC50": "< 100"}, {"smiles": "COCC1CN(c2ccc(Nc3ccc(-c4cnc5nc(C)ccn45)c4c3C(=O)NC4)nc2)CCO1", "note": "(stereo in doubt) [I-628, (R)-7-((5-(2-(methoxymeth-yl)morpho-lino)pyridin-2-yl)amino)-4-(7-methylimidazol',2-a]pyriinidin-3-yl)isoindolin-1-one]", "IC50": "< 100"}, {"smiles": "COCCn1ccc2c(-c3ccc(Nc4ccc(N5CCN(C)CC5)cn4)c4c3CNC4=O)ccnc21", "note": "[I-47, 4-[1-(2-methoxyethyl)pyrrolo[2,3-b]pyridin-4-yl]-7-[[5-(4-methylpiperazin-1-yl)-2-pyridyl]amino] isoindolin-1-one]", "IC50": "< 100"}, {"smiles": "Cn1ncc(Nc2ccc(-c3cnc4cc(F)ccn34)c3c2C(=O)NC3)c1C1CCOCC1", "note": "[I-396]", "IC50": "> 1000"}, {"smiles": "O=C1NCc2c(-c3cnc4cc(C(F)F)ccn34)ccc(Nc3ccc([C@@]4(O)CCOC4)cn3)c21", "note": "[I-610, (S)-4-(7-(difluoromethyl)-imidazo[1,2-a]pyridin-3-yl)-7-((5-(3-hydroxytetra-hydrofuran-3-yl)pyridin-2-yl)amino)isoin-dolin-1-one]", "IC50": "< 100"}, {"smiles": "N#Cc1ccn2c(-c3ccc(Nc4ccc(N5CCOCC5)cn4)c4c3CNC4=O)cnc2c1", "note": "[I-183, 3-[7-[(5-morpholino-2-pyridyl)amino]-1-oxo-isoindolin-4-yl]imidazo[1,2-a]pyridine-7-carbonitrile]", "IC50": "< 100"}, {"smiles": "CC(C)(O)[C@@H]1CN(c2ccc(Nc3ccc(-c4cnc5cnccn45)c4c3C(=O)NC4)nc2)CCO1", "note": "[I-457, 7-[[5-[(2S)-2-(1-hydroxy-1-methyl-ethyl)morpholin-4-yl]-2-pyridyl]amino] 4-imidazo[1,2-a]pyrazin-3-yl-isoindolin-1-one]", "IC50": "< 100"}, {"smiles": "COCC1(O)CCN(c2ccc(Nc3ccc(-c4ccnc5c4ccn5C)c4c3C(=O)NC4)nc2)CC1", "note": "[I-298, 7-((5-(4-hydroxy-4-(methoxymeth-yl)piperidin-1-yl)pyridin-2-yl)amino)-4-(1-methyl-1H-pyrrolo[2,3-b]pyridin-4-yl)isoindolin-1-one]", "IC50": "< 100"}, {"smiles": "CC(C)(C)NCc1nc(Nc2ccc(-c3cnc4cc(F)ccn34)c3c2C(=O)NC3)ccc1C1CCOC1", "note": "(stereo not shown) [I-848, 7-[[6-[(tert-butylamino)methyl]-5-tetrahydrofuran-3-yl-2-pyridyl]amino]-4-(7-fluoroimidazo [1,2-a]pyridin-3-yl)isoindolin-1-one]", "IC50": "< 100"}, {"smiles": "CN(C)Cc1nc(Nc2cnc(-c3ccnc4c3ccn4C)c3c2C(=O)NC3)ccc1[C@H]1CCOC1", "note": "[I-708, (R)-7-((6-((dimethylamino)methyl)-5-(tetrahydrofuran-3-yl)pyridin-2-yl)amino)-4-(1-methyl-1H-pyrrolo[2,3-b]pyridin-4-yl)-2,3-dihydro-1H-pyrrolo[3,4-c]pyridin-1-one]", "IC50": "< 100"}, {"smiles": "O=C1NCc2c(-c3cnc4ncccn34)ccc(Nc3ccc(N4CCNCC4)cn3)c21", "note": "[I-87, 4-imidazo[1,2-a]pyrimidin-3-yl-7-[(5-piperazin-1-yl-2-pyridyl)amino] isoindolin-1-one]", "IC50": "< 100"}, {"smiles": "CN1CCN(c2ccc(Nc3ccc(-c4cnc5[nH]ccc5c4)c4c3C(=O)NC4)nc2)CC1", "note": "[I-45, 7-[[5-(4-methylpiperazin-1-yl)-2-pyridyl]amino]-4-(1H-pyrrolo[2,3-b]pyridin-5-yl)isoindolin-1-one]", "IC50": "< 100"}, {"smiles": "CN(C)C(C)(C)[C@]1(O)CCCN(c2ccc(Nc3ccc(-c4cnc5cc(F)ccn45)c4c3C(=O)NC4)nc2)C1", "note": "[I-715, (S)-7-((5-(3-(2-(dimethylami-no)propan-2-yl)-3-hydroxy-piperidin-1-yl)pyridin-2-yl)amino)-4-(7-fluoroimidazo [1,2-a]pyridin-3-yl)isoindolin-1-one]", "IC50": "< 100"}, {"smiles": "Cn1ccc2c(-c3ncc(Nc4ccc([C@H]5CCOC5)c(CN)n4)c4c3CNC4=O)ccnc21", "note": "[I-829, (R)-7-((6-(aminomethyl)-5-(THF-3-yl)pyridin-2-yl)amino)-4-(1-methyl-1H-pyrrolo[2,3-b]pyridin-4-yl)-2,3-dihydro-1H-pyrrolo[3,4-c]pyridin-1-one]", "IC50": "< 100"}, {"smiles": "CN1CCN(c2cccc(Nc3ccc(-c4cnc5cnccn45)c4c3C(=O)NC4)n2)CC1", "note": "[I-234, 4-imidazo[1,2-a]pyrazin-3-yl-7-[[6-(4-methylpiperazin-1-yl)-2-pyridyl]-amino]isoindolin-1-one]", "IC50": "100 to 1000"}, {"smiles": "Cc1ncc2c(-c3ccc(Nc4ccc(N5CCC(O)CC5)cn4)c4c3CNC4=O)cccn12", "note": "[I-180, 7-[[5-(4-hydroxy-1-piperidyl)-2-pyridyl]amino]-4-(3-methyliminidazo [1.5-a]pyridin-8-yl)isoindolin-1-one]", "IC50": "100 to 1000"}, {"smiles": "O=C1NCc2c(-c3cnc4cc(F)ccn34)ccc(Nc3ccc([C@H]4CCOC4)c(CNCC(F)(F)F)n3)c21", "note": "[I-750, (R)-4-(7-fluoroimidazo [1,2-a]pyridin-3-yl)-7-((5-(tetrahydrofuran-3-yl)-6-(((2,2,2-trifluoroethyl)amino)methyl)pyridin-2-yl)amino)isoin-dolin-1-one]", "IC50": "< 100"}, {"smiles": "Cc1cccn2c(-c3ccc(Nc4ccc(N5CCN(C)CC5)cn4)c4c3CNC4=O)cnc12", "note": "[I-52, 4-(8-methylimidazo [1,2-a]pyridin-3-yl-)-7-[[5-(4-methylpiperazin-1-yl)-2-pyridyl]amino] isoindolin-1-1-one]", "IC50": "< 100"}, {"smiles": "O=C1NCc2c(-c3ccnc4ccsc34)ccc(Nc3ccc(N4CCNCC4)cn3)c21", "note": "[I-107, 7-[(5-piperazin-1-yl-2-pyridyl)amino]-4-thieno[3,2-b]pyridin-7-yl-isoindolin-1-one]", "IC50": "< 100"}, {"smiles": "C[C@@H]1COc2c(-c3ccc(Nc4ccc(N5CCN(C)CC5)cn4)c4c3CNC4=O)cnn2C1", "note": "[I-261, (S)-4-(6-methyl-6,7-dihydro-5H-pyrazolo[5,1-b][l,3]oxazin-3-yl)-7-((5-(4-methylpiperazin-1-yl)pyridin-2-yl)amino)isoin-dolin-1-one]", "IC50": "< 100"}, {"smiles": "CN1CCN(c2ccc(Nc3cnc(-c4c[nH]c5cc(O)ccc45)c4c3C(=O)NC4)nc2)CC1", "note": "[I-250]", "IC50": "100 to 1000"}, {"smiles": "Cc1nc2ccccn2c1-c1ccc(Nc2ccc(N3CCN(C)CC3)cn2)c2c1CNC2=O", "note": "[I-50, 4-(2-methylimidazo [1,2-a]pyridin-3-yl-)-7-[[5-(4-methylpiperazin-1-yl)-2-pyridyl]amino] isoindolin-1-1-one]", "IC50": "100 to 1000"}, {"smiles": "O=C1NCc2c(-c3cnc4cnccn34)ccc(Nc3ccc(N4CCC[C@@H](O)CC4)cn3)c21", "note": "[I-329, (R)-7-((5-(4-hydroxyaze-pan-1-yl)pyridin-2-yl)amino)-4-(imidazol[1,2-a]pyrazin-3-yl)isoindolin-1-one]", "IC50": "< 100"}, {"smiles": "CN1CC(c2ccn3c(-c4ccc(Nc5ccc(N6CCC(O)CC6)cn5)c5c4CNC5=O)cnc3c2)C1", "note": "[I-411, 7-((5-(4-hydroxy-piperidin-1-yl)pyridin-2-yl)amino)-4-(7-(1-methylazetidin-3-yl)imidazo[1,2-a]pyridin-3-yl)isoindolin-1-one]", "IC50": "< 100"}]}]}
